Each structure is given as a SMILES string.

The results in this text go back to ChEMBL document CHEMBL4373682, “Synergistic effect of tolfenamic acid and glycyrrhizic acid on TPA-induced skin inflammation in mice” (Medchemcomm, 2019).

Series [1] has as its system Mus musculus. Briefly: Antiinflammatory activity against TPA-induced ear edema in BALB/c mouse assessed as effect on weight of ear punches at 100 mg/kg, po administered 6 mins prior to TPA challenge and treated twice in 4 hrs and measured after 6 hrs post administration (reference value: 4.5 +/- 0.18 mg). The format is functional.
A short description of series [2]: Tmax in rat at 10 to 480 mg/kg, po. The note with it: in vivo. The format is ADME, organism-based.
Series [3] has as its system Mus musculus. Briefly: Antiinflammatory activity against TPA-induced ear edema in BALB/c mouse assessed as inhibition of ear edema at 50 mg/kg, po administered 6 mins prior to TPA challenge and treated twice in 4 hrs and measured after 6 hrs post administration relative to control. The format is functional.
Series [4] deals with Mus musculus. Briefly: Antiinflammatory activity against TPA-induced ear edema in BALB/c mouse assessed as inhibition of ear edema at 100 mg/kg, po administered 6 mins prior to TPA challenge and treated twice in 4 hrs and measured after 6 hrs post administration relative to control. The format is functional.

Consider `CC(C)Cc1ccc(C(C)C(=O)O)cc1` (stereo not given) [IBUPROFEN], for which, in the series on Mus musculus [1], the Activity came out at 8.8 mg.

As to `COc1ccc2cc([C@H](C)C(=O)O)ccc2c1` [NAPROXEN], the Activity with Mus musculus [1] was 11.5 mg.

As to `Cc1c(Cl)cccc1Nc1ccccc1C(=O)O` [TOLFENAMIC ACID], the Tmax in series [2] was 2 to 3 h. The inhibition in vivo at 50 mg/kg with Mus musculus [3] was determined as 35.1%. The inhibition in vivo at 100 mg/kg in the series on Mus musculus [4] amounted to 51.4%.

As to `CC(=O)Oc1ccccc1C(=O)O` [ASPIRIN], the Activity in the series on Mus musculus [1] is given as 11.2 mg.

Take `CC1(C)[C@@H](O[C@H]2O[C@H](C(=O)O)[C@@H](O)[C@H](O)[C@H]2O[C@@H]2O[C@H](C(=O)O)[C@@H](O)[C@H](O)[C@H]2O)CC[C@]2(C)[C@H]3C(=O)C=C4[C@@H]5C[C@@](C)(C(=O)O)CC[C@]5(C)CC[C@@]4(C)[C@]3(C)CC[C@@H]12` [GLYCYRRHIZIN]: the Activity in the series on Mus musculus [1] was determined as 12.7 mg. In addition, the inhibition in vivo at 50 mg/kg in the series with Mus musculus [3] is -5.41%. Also, the inhibition in vivo at 100 mg/kg in the series with Mus musculus [4] is -10.8%.

In the case of `CCc1cccc2c3c([nH]c12)C(CC)(CC(=O)O)OCC3` (stereo not given) [ETODOLAC], the Activity in the series on Mus musculus [1] is 11.1 mg.

Usually Tmax stands for the time from dosing to the highest level. In general, inhibition in vivo refers to the drop in the measured response relative to a control, in per cent.
